From patent publication US10954252B1, “Inhibitors of human immunodeficiency virus replication” (ViiV HEALTHCARE UK (NO.5) LIMITED, priority 2017, dated 2021)

How the values were obtained:
[1] = tested on: recombinant NL4-3 virus (nef section replaced with Renilla luciferase gene) in MT-2 cells; experiment: HIV cell culture assay (antiviral activity, luciferase readout); assay type: cell-based; conditions: MT-2 cells infected for 4-5 days with recombinant NL4-3 luciferase virus
Outline: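 Serially diluted compounds were present throughout a 4-5 day infection of MT-2 cells by recombinant NL4-3 whose nef region partly encodes Renilla luciferase. Antiviral activity was taken from live-cell luciferase signal, with the 50% effective concentration fitted by the exponential median effect equation.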

uninfected MT2 cells = experiment: Compound cytotoxicity, XTT-based colorimetric assay; assay type: cell-based
Outline: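 XTT colorimetric read-out on day 4 gave CC50 values, using MT2 cells left uninfected but otherwise handled as in the antiviral assay.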

| SMILES | EC50 ([1]; Table 1a) | CC50 (uninfected MT2 cells; Table 1a, day 4, XTT) | EC50 ([1]; Table 1) | CC50 (uninfected MT2 cells; Table 1, day 4, XTT) |
| --- | --- | --- | --- | --- |
| Cn1nc(NS(C)(=O)=O)c2c(Cl)ccc(-n3c([C@H](Cc4cc(F)cc(F)c4)NC(=O)Cn4nc(C(F)F)c5c4C(F)(F)[C@@H]4C[C@H]54)nc4cc(CS(C)(=O)=O)ccc4c3=O)c21 (mixture of isomers) [Example 202, N—((S)-1-(3-(4-chloro-1-methyl-3-(methylsulfonamido)-1H-indazol-7-yl)-7-((methylsulfonyl)methyl)-4-oxo-3,4-dihydroquinazolin-2-yl)-2-(3,5-difluorophenyl)ethyl)-2-((3bS,4aR)-3-(difluoromethyl)-5,5-difluoro-3b,4,4a,5-tetrahydro-1H-cyclopropa[3,4]cyclopenta[1,2-c]pyrazol-1-yl)acetamide] | 0.3 nM | > 1000 nM | – | – |
| Cn1nc(NS(C)(=O)=O)c2c(Cl)ccc(-n3c([C@H](Cc4cc(F)cc(F)c4)NC(=O)Cn4nc(C(F)F)c5c4C(F)(F)[C@@H]4C[C@H]54)nc4cc(C(C)(C)S(C)(=O)=O)ccc4c3=O)c21 (mixture of isomers) [Example 208, N—((S)-1-(3-(4-chloro-1-methyl-3-(methylsulfonamido)-1H-indazol-7-yl)-7-(2-(methylsulfonyl)propan-2-yl)-4-oxo-3,4-dihydroquinazolin-2-yl)-2-(3,5-difluorophenyl)ethyl)-2-((3bS,4aR)-3-(difluoromethyl)-5,5-difluoro-3b,4,4a,5-tetrahydro-1H-cyclopropa[3,4]cyclopenta[1,2-c]pyrazol-1-yl)acetamide] | 0.083 nM | > 1000 nM | – | – |
| Cn1nc(NS(C)(=O)=O)c2c(Cl)ccc(-n3c([C@H](Cc4cc(F)cc(F)c4)NC(=O)Cn4nc(C(F)F)c5c4C(F)(F)[C@@H]4C[C@H]54)nc4cc(C(C)(C)C)ccc4c3=O)c21 (mixture of isomers) [Example 216, N—((S)-1-(7-(tert-Butyl)-3-(4-chloro-1-methyl-3-(methylsulfonamido)-1H-indazol-7-yl)-4-oxo-3,4-dihydroquinazolin-2-yl)-2-(3,5-difluorophenyl)ethyl)-2-((3bS,4aR)-3-(difluoromethyl)-5,5-difluoro-3b,4,4a,5-tetrahydro-1H-cyclopropa[3,4]cyclopenta[1,2-c]pyrazol-1-yl)acetamide] | 0.059 nM | > 1000 nM | – | – |
| O=C(Cn1nc(C(F)F)c2c1C(F)(F)[C@@H]1C[C@H]21)NC(Cc1cc(F)cc(F)c1)c1nc2ncsc2cc1-c1ccc2scnc2c1 (single isomer, unassigned) [Example 1.1] | – | – | 3.1 nM | > 100000 nM |
| O=C(Cn1nc(C(F)F)c2c1C(F)(F)[C@@H]1C[C@H]21)NC(Cc1cc(F)cc(F)c1)c1nc2ncsc2cc1-c1ccc2scnc2c1 (single isomer, unassigned) [Example 1.2] | – | – | 2850 nM | > 33300 nM |
| Cn1nc(NS(C)(=O)=O)c2c(Cl)ccc(-c3cc4scnc4nc3C(Cc3cc(F)cc(F)c3)NC(=O)Cn3nc(C(F)F)c4c3C(F)(F)[C@@H]3C[C@H]43)c21 (single isomer, unassigned) [Example 1.3] | – | – | 0.3 nM | > 10000 nM |
| Cn1nc(NS(C)(=O)=O)c2c(Cl)ccc(-c3cc4scnc4nc3C(Cc3cc(F)cc(F)c3)NC(=O)Cn3nc(C(F)F)c4c3C(F)(F)[C@@H]3C[C@H]43)c21 (single isomer, unassigned) [Example 1.5] | – | – | 1150 nM | > 10000 nM |
| Cn1nc(NS(C)(=O)=O)c2c(Cl)ccc(-c3cc4scnc4nc3C(Cc3cc(F)cc(F)c3)NC(=O)Cn3nc(C(F)F)c4c3C(F)(F)[C@@H]3C[C@H]43)c21 (single isomer, unassigned) [Example 1.6] | – | – | 1780 nM | > 10000 nM |
| Cc1nc2nc(C(Cc3cc(F)cc(F)c3)NC(=O)Cn3nc(C(F)F)c4c3C(F)(F)[C@@H]3C[C@H]43)c(-c3ccc(Cl)c4c(NS(C)(=O)=O)nn(C)c34)cc2s1 (single isomer, unassigned) [Example 2.2] | – | – | 1150 nM | > 10000 nM |
| Cc1nc2nc(C(Cc3cc(F)cc(F)c3)NC(=O)Cn3nc(C(F)F)c4c3CCC4)c(-c3ccc(Cl)c4c(NS(C)(=O)=O)nn(C)c34)cc2s1 (single isomer, unassigned) [Example 2.4, N-(1-(6-(4-chloro-1-methyl-3-(methylsulfonamido)-1H-indazol-7-yl)-2-methylthiazolo[4,5-b]pyridin-5-yl)-2-(3,5-difluorophenyl)ethyl)-2-(3-(difluoromethyl)-5,6-dihydrocyclopenta[c]pyrazol-1(4H)-yl)acetamide] | – | – | 690 nM | > 10000 nM |
| O=C(Cn1nc(C(F)F)c2c1C(F)(F)[C@@H]1C[C@H]21)N[C@H](Cc1cc(F)cc(F)c1)c1nc2cn[nH]c2cc1-c1ccc2scnc2c1 (single isomer, unassigned) [Example 3.1] | – | – | 22 nM | 42100 nM |
| O=C(Cn1nc(C(F)F)c2c1C(F)(F)[C@@H]1C[C@H]21)N[C@H](Cc1cc(F)cc(F)c1)c1nc2cn[nH]c2cc1-c1ccc2scnc2c1 (single isomer, unassigned) [Example 3.2] | – | – | 960 nM | 12700 nM |
| O=C(Cc1c[nH]c2ccc(O)cc12)NC(Cc1cc(F)cc(F)c1)c1nc2cn[nH]c2cc1-c1ccc2scnc2c1 (single isomer, unassigned) [Example 3.4, N-(1-(6-(benzo[d]thiazol-5-yl)-1H-pyrazolo[4,3-b]pyridin-5-yl)-2-(3,5-difluorophenyl)ethyl)-2-(5-hydroxy-1H-indol-3-yl)acetamide] | – | – | 470 nM | 83900 nM |
| O=C(Cc1c[nH]c2ccc(F)cc12)NC(Cc1cc(F)cc(F)c1)c1nc2cn[nH]c2cc1-c1ccc2scnc2c1 (single isomer, unassigned) [Example 3.6, N-(1-(6-(benzo[d]thiazol-5-yl)-1H-pyrazolo[4,3-b]pyridin-5-yl)-2-(3,5-difluorophenyl)ethyl)-2-(5-fluoro-1H-indol-3-yl)acetamide] | – | – | 230 nM | 32600 nM |
| Cn1nc(NS(C)(=O)=O)c2c(Cl)ccc(-c3cc4[nH]cnc4nc3C(Cc3cc(F)cc(F)c3)NC(=O)Cn3nc(C(F)F)c4c3C(F)(F)[C@@H]3C[C@H]43)c21 (single isomer, unassigned) [Example 4.2] | – | – | 1 nM | > 10000 nM |
| Cn1nc(NS(C)(=O)=O)c2c(Cl)ccc(-c3cc4[nH]ccc4nc3C(Cc3cc(F)cc(F)c3)NC(=O)Cn3nc(C(F)F)c4c3C(F)(F)[C@@H]3C[C@H]43)c21 (single isomer, unassigned) [Example 5.2] | – | – | 400 nM | > 10000 nM |
| Cn1nc(NS(C)(=O)=O)c2c(Cl)ccc(-c3cc4[nH]ccc4nc3C(Cc3cc(F)cc(F)c3)NC(=O)Cn3nc(C(F)F)c4c3C(F)(F)[C@@H]3C[C@H]43)c21 (single isomer, unassigned) [Example 5.3] | – | – | 0.2 nM | > 10000 nM |
| Cn1nc(NS(C)(=O)=O)c2c(Cl)ccc(-c3cc4[nH]ccc4nc3C(Cc3cc(F)cc(F)c3)NC(=O)Cn3nc(C(F)F)c4c3C(F)(F)[C@@H]3C[C@H]43)c21 (single isomer, unassigned) [Example 5.4] | – | – | 0.2 nM | > 10000 nM |
| Cn1nc(NS(C)(=O)=O)c2c(Cl)ccc(-c3cc4cn[nH]c4nc3C(Cc3cc(F)cc(F)c3)NC(=O)Cn3nc(C(F)F)c4c3C(F)(F)[C@@H]3C[C@H]43)c21 (single isomer, unassigned) [Example 6.2] | – | – | 4.3 nM | > 10000 nM |
| O=C(Cn1nc(C(F)F)c2c1C(F)(F)[C@@H]1C[C@H]21)NC(Cc1cc(F)cc(F)c1)c1ncc2nc[nH]c2c1-c1ccc2scnc2c1 (single isomer, unassigned) [Example 7.2] | – | – | 9 nM | 17500 nM |
| Cn1nc(NS(C)(=O)=O)c2c(Cl)ccc(-c3c(C(Cc4cc(F)cc(F)c4)NC(=O)Cn4nc(C(F)F)c5c4C(F)(F)[C@@H]4C[C@H]54)ncc4[nH]cnc34)c21 (single isomer, unassigned) [Example 7.4] | – | – | 300 nM | > 10000 nM |
| Cn1nc(NS(C)(=O)=O)c2c(Cl)ccc(-c3c(C(Cc4cc(F)cc(F)c4)NC(=O)Cn4nc(C(F)F)c5c4C(F)(F)[C@@H]4C[C@H]54)ncc4[nH]cnc34)c21 (single isomer, unassigned) [Example 7.5] | – | – | 1320 nM | > 10000 nM |
| Cn1nc(NS(C)(=O)=O)c2c(Cl)ccc(-c3c(C(Cc4cc(F)cc(F)c4)NC(=O)Cn4nc(C(F)F)c5c4C(F)(F)[C@@H]4C[C@H]54)ncc4[nH]cnc34)c21 (single isomer, unassigned) [Example 7.6] | – | – | 8.1 nM | > 10000 nM |
| Cn1nc(NS(C)(=O)=O)c2c(Cl)ccc(-c3cc4ccccc4nc3C(Cc3cc(F)cc(F)c3)NC(=O)Cn3nc(C(F)F)c4c3C(F)(F)[C@@H]3C[C@H]43)c21 (single isomer, unassigned) [Example 8.2] | – | – | 180 nM | > 10000 nM |
| Cn1nc(NS(C)(=O)=O)c2c(Cl)ccc(-n3c([C@H](Cc4cc(F)cc(F)c4)NC(=O)Cn4nc(C(F)F)c5c4C(F)(F)[C@@H]4C[C@H]54)nc4ncccc4c3=O)c21 (single isomer, unassigned) [Example 10.40] | – | – | 0.0189 nM | > 10000 nM |
| Cc1ccn(CC(=O)N[C@@H](Cc2cc(F)cc(F)c2)c2nc3ncccc3c(=O)n2-c2ccc(Cl)c3c(NS(C)(=O)=O)nn(C)c23)n1 (single isomer, unassigned) [Example 47.2] | 1.7 nM | > 1000 nM | – | – |
| Cn1nc(NS(C)(=O)=O)c2c(Cl)ccc(-c3cc4cc[nH]c4nc3C(Cc3cc(F)cc(F)c3)NC(=O)Cn3nc(C(F)F)c4c3C(F)(F)[C@@H]3C[C@H]43)c21 (single isomer, unassigned) [Example 86] | 1100 nM | > 10000 nM | – | – |
| CS(=O)(=O)Nc1nn(CC(F)F)c2c(-c3cc4[nH]ncc4nc3[C@H](Cc3cc(F)cc(F)c3)NC(=O)Cn3nc(C(F)F)c4c3C(F)(F)[C@@H]3C[C@H]43)ccc(Cl)c12 (single isomer, unassigned) [Example 93] | 0.099 nM | > 10000 nM | – | – |
